Source: patent US20250186434A1, “SOS1 PROTEIN DEGRADERS, PHARMACEUTICAL COMPOSITIONS THEREOF, AND THEIR THERAPEUTIC APPLICATIONS” (BioTheryX, Inc., priority 2022, published 2025)

These compounds were tested against T1, HiBiT-tagged endogenous SOS1 protein (Homo sapiens, UniProt Q07889) (assay: SOS1-HiBiT Degradation Assay). Conditions: HEK293 cells expressing HiBiT-tagged endogenous SOS1, 6 h treatment.
T1 construct: HEK293 cells were engineered to express a HiBiT-tagged endogenous SOS1 protein; endogenous in cells; host or cells: HEK293 (engineered, HiBiT knock-in at the endogenous SOS1 locus)
T1 sequence (Q07889 1-1333): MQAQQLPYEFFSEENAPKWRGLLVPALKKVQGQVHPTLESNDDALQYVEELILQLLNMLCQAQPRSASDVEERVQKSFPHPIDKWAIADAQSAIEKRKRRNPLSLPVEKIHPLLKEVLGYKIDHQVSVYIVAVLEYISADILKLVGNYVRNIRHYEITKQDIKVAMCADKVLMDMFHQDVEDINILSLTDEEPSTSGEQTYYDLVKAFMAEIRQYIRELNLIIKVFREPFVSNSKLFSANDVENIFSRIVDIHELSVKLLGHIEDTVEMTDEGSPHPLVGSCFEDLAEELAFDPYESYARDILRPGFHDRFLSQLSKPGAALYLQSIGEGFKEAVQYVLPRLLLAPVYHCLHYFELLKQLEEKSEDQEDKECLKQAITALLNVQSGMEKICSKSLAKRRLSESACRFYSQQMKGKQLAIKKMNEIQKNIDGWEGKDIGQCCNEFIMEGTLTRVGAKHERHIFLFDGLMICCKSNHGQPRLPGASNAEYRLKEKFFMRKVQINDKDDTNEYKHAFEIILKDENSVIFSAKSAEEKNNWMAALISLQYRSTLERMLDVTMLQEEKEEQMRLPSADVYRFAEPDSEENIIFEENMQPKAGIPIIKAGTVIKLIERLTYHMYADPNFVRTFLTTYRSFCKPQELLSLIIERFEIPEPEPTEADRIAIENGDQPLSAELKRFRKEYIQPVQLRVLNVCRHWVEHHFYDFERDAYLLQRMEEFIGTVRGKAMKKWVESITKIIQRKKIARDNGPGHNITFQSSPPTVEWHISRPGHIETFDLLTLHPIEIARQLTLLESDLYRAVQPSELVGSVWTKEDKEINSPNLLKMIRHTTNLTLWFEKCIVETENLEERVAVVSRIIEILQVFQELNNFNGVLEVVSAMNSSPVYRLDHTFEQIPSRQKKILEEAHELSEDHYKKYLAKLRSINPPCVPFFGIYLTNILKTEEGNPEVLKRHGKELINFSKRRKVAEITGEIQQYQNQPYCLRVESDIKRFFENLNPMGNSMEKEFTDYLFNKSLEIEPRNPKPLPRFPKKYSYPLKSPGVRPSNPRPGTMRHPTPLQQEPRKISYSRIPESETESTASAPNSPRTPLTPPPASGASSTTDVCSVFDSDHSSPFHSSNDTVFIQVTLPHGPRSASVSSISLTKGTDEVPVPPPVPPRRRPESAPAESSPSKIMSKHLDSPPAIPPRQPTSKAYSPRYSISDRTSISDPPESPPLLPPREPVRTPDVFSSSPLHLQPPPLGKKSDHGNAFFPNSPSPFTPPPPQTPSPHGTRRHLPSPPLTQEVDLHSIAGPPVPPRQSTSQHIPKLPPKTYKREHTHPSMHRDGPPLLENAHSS
Format: cell-based
Protocol: HEK293 cells were engineered to express a HiBiT-tagged endogenous SOS1 protein. The cells were cultured in DMEM media supplemented with 10% fetal bovine serum, streptomycin, and penicillin. The cells were seeded in a white walled 384-well plate at 12,500 cells/well in 50 μL culture media. The cells were incubated at 37° C. under 5% CO2 overnight. The cells were then treated with DMSO (control) or a compound for 6 h at 37° C. under 5% CO2. After incubation, 25 μL media was removed from each cell and 25 μL NANO-GLO® lytic detection reagent was added to each well. After a 10 min incubation with shaking, luminescence was measured using a PERKINELMER ENVISION® multimode plate reader.
`Cc1c([C@@H](C)Nc2nnc(C)c3ccc(N4CCN(CCCCCN5CCN(C(=O)CNc6ccc(C7CCC(=O)NC7=O)cc6)CC5)CC4)cc23)cccc1C(F)(F)F` (stereo partly drawn) [Compound A301, 3-(4-((2-(4-(5-(4-(1-Methyl-4-(((R)-1-(2-methyl-3-(trifluoromethyl)phenyl)-ethyl)amino)phthalazin-6-yl)piperazin-1-yl)pentyl)piperazin-1-yl)-2-oxoethyl)amino)phenyl)-piperidine-2,6-dione] was tested, and the DC50 was > 2000 nM and the Dmax was < 30%.
For `Cc1c([C@@H](C)Nc2nnc(C)c3ccc(N4CCN(CCCCCN5CCC(c6cc7c(cc6F)C(=O)N(C6CCC(=O)NC6=O)C7)CC5)CC4)cc23)cccc1C(F)(F)F` (stereo partly drawn) [Compound A101, 3-(6-fluoro-5-(1-(5-(4-(1-methyl-4-(((R)-1-(2-methyl-3-(trifluoromethyl)phenyl)-ethyl)amino)phthalazin-6-yl)piperazin-1-yl)pentyl)piperidin-4-yl)-1-oxoisoindolin-2-yl)-piperidine-2,6-dione], the DC50 was ≤ 100 nM and the Dmax was ≥ 70%.
With `Cc1c([C@@H](C)Nc2nnc(C)c3ccc(N4CCN(CCCCCCCCCN5CCN(C(=O)CNc6ccc(C7CCC(=O)NC7=O)cc6)CC5)CC4)cc23)cccc1C(F)(F)F` (stereo partly drawn) [Compound A303, 3-(4-((2-(4-(9-(4-(1-methyl-4-(((R)-1-(2-methyl-3-(trifluoromethyl)phenyl)-ethyl)amino)phthalazin-6-yl)piperazin-1-yl)nonyl)piperazin-1-yl)-2-oxoethyl)amino)phenyl)-piperidine-2,6-dione] the DC50 was ≤ 100 nM and the Dmax was ≥ 70%.
In the case of `Cc1c([C@@H](C)Nc2nnc(C)c3ccc(N4CCN(CCCCCCCCCN5CCC(c6cc7c(cc6F)C(=O)N(C6CCC(=O)NC6=O)C7)CC5)CC4)cc23)cccc1C(F)(F)F` (stereo partly drawn) [Compound A103, 3-(6-Fluoro-5-(1-(9-(4-(1-methyl-4-(((R)-1-(2-methyl-3-(trifluoromethyl)phenyl)-ethyl)amino)phthalazin-6-yl)piperazin-1-yl)nonyl)piperidin-4-yl)-1-oxoisoindolin-2-yl)-piperidine-2,6-dione], the DC50 was ≤ 100 nM and the Dmax was ≥ 70%.
`Cc1c([C@@H](C)Nc2nnc(C)c3ccc(N4CCN(CCCCCCCCCN5CCN(C(=O)CNc6cccc7c(C8CCC(=O)NC8=O)nn(C)c67)CC5)CC4)cc23)cccc1C(F)(F)F` (stereo partly drawn) [Compound A203, 3-(1-methyl-7-((2-(4-(9-(4-(1-methyl-4-(((R)-1-(2-methyl-3-(trifluoromethyl)-phenyl)ethyl)amino)phthalazin-6-yl)piperazin-1-yl)nonyl)piperazin-1-yl)-2-oxoethyl)amino)-1H-indazol-3-yl)piperidine-2,6-dione] was tested, and the DC50 was ≤ 100 nM and the Dmax was ≥ 70%.
In the case of `COc1cc2nc(C)nc(N[C@H](C)c3cc(N)cc(C(F)(F)F)c3)c2cc1OC` [Compound C1, (R)—N-(1-(3-amino-5-(trifluoromethyl)phenyl)ethyl)-6,7-dimethoxy-2-methylquinazolin-4-amine, reference compound], the DC50 was > 10000 nM.
